Patent US20030180291A1, “Method of inactivating viruses” (priority 1998, published 2003)
Values joined by “and” are separate entries in the source; they are usually repeats but may differ in a detail not shown here. Identical values can stand only once.

Assays:
[1] = tested on: Vesicular Stomatitis (VSV, strain Indiana)
[2] = tested on: Humane Immunodeficiency Virus Type 1 (HIV-1, strain HTLV-IIIb)
[3] = tested on: PseudoRabies virus (PSR, strain Bartha K61)
[4] = tested on: Vesicular Stomatitis virus (VSV); assay type: cell-based
[5] = tested on: humane erythrocytes; assay type: cell-based, human

SMILES	effective [DMMB] [1]	effective [DMMB] [2] [µM]	effective [DMMB] [3] [µM]	effect of dipyridamol on the effective concentration of sensitizer [1]	effect of dipyridamol on the effective concentration of sensitizer [2]	effect of dipyridamol on the effective concentration of sensitizer [3]	effect of light exposure on virus inactivation in absence of sensitizer [4]	haemolysis after the erythrocytes had been stored for 12 days at 4° C. [5]
Cc1cc(=[N+](C)C)cc2sc3cc(N(C)C)cc(C)c3nc1-2.[Cl-] [DMMB, dimethyl-methylene blue]	4 µM and 5 µM	8	4	–	–	–	–	–
OCCN(CCO)c1nc(N2CCCCC2)c2nc(N(CCO)CCO)nc(N3CCCCC3)c2n1 [dipyridamol]	–	–	–	did not, or only barely appear to affect	did not, or only barely appear to affect	did not, or only barely appear to affect	no effect at all	very strong reduction
Cc1ncc(COP(=O)(O)O)c(C=O)c1O [pyridoxal phosphate]	–	–	–	–	–	–	no effect at all	–
